Legend:
[1] = tested on: high fat diet-induced simple steatosis; assay: Preventive effects on high fat diet-induced simple steatosis in mice (drug-mixed diet, 8/16/24 weeks); assay type: in vivo, C57BL/6 mice; details: for serum alanine aminotransferase (ALT), result in words: at 16 weeks and 24 weeks; for serum alanine aminotransferase (ALT), result in words / hepatic triglyceride content, result in words: vs high fat diet-fed group; for hepatic triglyceride content, result in words: hepatic triglyceride analysis and histological analysis
Method: 6-week old male C57BL/6 mice were stabilized and then divided into 5 groups. One group was given a standard diet containing 10% fat (trade name: D12450B, manufactured by Research Diets), and one group was given a high fat diet containing 60% fat (trade name: D12492, manufactured by Research Diets). Remaining 3 groups as drug-treated groups were given a drug-mixed diet specially formulated by mixing a high fat diet and a drug. With regard to tartrate of Compound 1, in order to supply 100 mg/kg and 300 mg/kg which are daily target doses of tartrate of Compound 1 based on the daily average high fat diet consumption amount, diets were formulated by mixing a high fat diet and 0.2% by weight and 0.5% by weight of tartrate of Compound 1, respectively. With regard to sitagliptin phosphate, in order to supply 300 mg/kg which is a daily target dose based on the daily average high fat diet consumption amount, a diet was formulated by mixing a high fat diet and about 0.5% by weight of sitagliptin phosphate. Individual drug-treated groups were given the drug-mixed diets thus formulated. 8 weeks, 16 weeks, and 24 weeks after a supply of each diet, animals were dissected and sera were separated. Then, serum ALT levels (alanine aminotransferase, GPT, glutamic pyruvate transaminase) were measured using a blood analyzer (Table 1 and FIG. 1). The excised liver was homogenized in a 5(v/v) % Triton-X solution, and a triglyceride working reagent [which was prepared by mixing a free glycerol reagent (F6428, Sigma) and a triglyceride reagent (T2449, Sigma) in a ratio of 4:1(v/v)] was added thereto, followed by measurement of an absorbance at 540 nm to determine the content of triglyceride (Table 1 and FIG. 2). In addition, in order to observe histological fat distribution, a portion of the excised liver was fixed in a 10(v/v) % formalin solution and then a tissue sample was prepared, followed by hematoxylin & eosin staining and photographing using an image analysis program (computerized image analysis) (FIG. 3, the violet-stained portion represents a normal liver tissue, and white-stained portion represents lipid droplets).

[2] = tested on: activated hepatic stellate cells; assay: Expression of activity indicator proteins (TGFβ1, α-SMA) in activated hepatic stellate cells, Western blot; assay type: cell-based, rat (Wistar); details: for 1 ng/mL TGFβ1-induced protein expression inhibition rate, TGFβ1 / 1 ng/mL TGFβ1-induced protein expression inhibition rate, α-SMA: 100 μM compound, 7 days, N = 3, corrected by β-actin; for protein expression levels of TGFβ1 and α-SMA, result in words: hTGF-β1-activated rat hepatic stellate cells
Method: An inhibitory action of the compounds of the present invention on the activation of hepatic stellate cells was tested according to the following cell culture method. Male rats (Wistar rats), weighing 500 to 700 g, were anesthetized, followed by an abdominal incision, and cannulae were connected to hepatic portal veins, followed by sequential perfusion with a Hank's Balanced Salt Solution (HBSS) containing heparin and an HBSS containing type 1 collagenase. After the perfusion was complete, the liver was excised, ground with surgical scissors, and added to an HBSS containing type 1 collagenase, followed by shaking culture at 37° C. for 15 minutes. The completely ground liquid-state liver tissue was passed through gauze and centrifuged at 500 g for 10 minutes. The resulting mingled cell precipitate was washed with a phosphate buffer, followed by centrifugation at 100 g for 5 minutes, and the supernatant was collected. The supernatant was further centrifuged at 500 g for 10 minutes to obtain a precipitate to which a 9:1 (v/v) mixture of a Ficoll liquid (GE Healthcare) and a Percoll liquid (GE Healthcare) was added, followed by mixing. A phosphate buffer was gently placed on the mixed layer, followed by centrifugation at 1,400 g for 15 minutes. Then, the cell layer formed between the upper layer and the lower layer was recovered and washed once with a Dulbecco's Modified Eagle Medium (DMEM) containing 10(v/v) % fetal bovine serum. The resulting cells were added at a cell density of 3.1×10^5 cells/cm^2, the medium was exchanged with a fresh medium after 24 hours, and cultured for 7 days with exchange of the medium at intervals of 2 to 3 days. Then, the drugs were treated at specified concentrations in a medium containing 1 ng/ml of a human transforming growth factor (TGF) β1 and a medium containing no TGF β1. TGF β1 was dissolved in dimethylsulfoxide (DMSO) to a concentration 1.000-fold higher than the desired treatment concentration of the drug, 1.000-fold diluted in a medium to be a 1-fold (1×) volume, and then treated on cells. After 7 days of the drug treatment, the medium was harvested and washed with a phosphate buffer. A buffer containing a surfactant was added thereto and the cells were lysed. Then, proteins were quantified, electrophoresed on a 4-12% Bis-Tris gel (Invitrogen), and transferred to a nitrocellulose membrane. The transferred proteins were reacted with primary antibodies specific for α-smooth muscle actin (α-SMA) or TGFβ1, and then reacted with horse radish peroxidase-conjugated specific secondary antibodies. The expression level of the target protein was confirmed using a chemiluminescent liquid and corrected in terms of actin (β-actin) expression level (FIG. 9). The decrement of observed protein expression by 100 μM of individual compounds of the present invention was expressed as a percentage drug-induced decrement, based an increment of protein expression in the TGFβ1-treated positive control group relative to the negative control group to which only DMSO was added (Table 3).

[3] = tested on: ob/ob mice; assay: Plasma alanine aminotransferase in obesity animal model ob/ob mice; assay type: in vivo; details: 4 weeks; for plasma alanine aminotransferase, result in words: ob/ob mice
Method: 5-week old male C57BL/6 mice (normal mouse group) and ob/ob mice (obesity mouse group) were stabilized and then divided into 6 groups according to the body weight and blood glucose level, followed by feeding with a standard diet and a drug-mixed diet. […] Therefore, in order to supply 10, 100 and 300 mg/kg which are daily target doses of tartrate of Compound 1, diets were formulated by mixing a standard diet with 0.01% by weight, 0.1% by weight and 0.3% by weight of tartrate of Compound 1 and 0.3% by weight of sitagliptin phosphate, respectively. 4 weeks after a supply of diets, animals were dissected and sera were separated. Plasma alanine aminotransferase levels were measured using a blood analyzer (Table 6).

[4] = 8 weeks, high fat diet + 0.5% drug (target 300 mg/kg/day)
[5] = 16 weeks, high fat diet + 0.5% drug (target 300 mg/kg/day)
[6] = 24 weeks, high fat diet + 0.5% drug (target 300 mg/kg/day)
[7] = standard diet with 0.3% drug (target 300 mg/kg/day)
[8] = 8 weeks, high fat diet + 0.2% drug (target 100 mg/kg/day)
[9] = 16 weeks, high fat diet + 0.2% drug (target 100 mg/kg/day)
[10] = 24 weeks, high fat diet + 0.2% drug (target 100 mg/kg/day)
[11] = standard diet with 0.01% drug (target 10 mg/kg/day)
[12] = standard diet with 0.1% drug (target 100 mg/kg/day)

Structure (SMILES)	Hepatic TG [1, 4] [mg/g wet liver]	Plasma ALT [1, 4] [U/L]	Hepatic TG [1, 5] [mg/g wet liver]	Plasma ALT [1, 5] [U/L]	Hepatic TG [1, 6] [mg/g wet liver]	Plasma ALT [1, 6] [U/L]	serum alanine aminotransferase (ALT), result in words [1]	hepatic triglyceride content, result in words [1]	1 ng/mL TGFβ1-induced protein expression inhibition rate, TGFβ1 [2] [%]	1 ng/mL TGFβ1-induced protein expression inhibition rate, α-SMA [2] [%]	protein expression levels of TGFβ1 and α-SMA, result in words [2]	plasma alanine aminotransferase, result in words [3]	ALT increase inhibition (%) relative to ob/ob mouse control group [3, 7] [%]	ALT increment (%) relative to normal mouse group [3, 7] [%]	further results
N[C@@H](CC(=O)N1CCn2c(nnc2C(F)(F)F)C1)Cc1cc(F)c(F)cc1F [sitagliptin phosphate, sitagliptin]	11.8 ± 2.7	26.5 ± 1.8	10.0 ± 1.2	22.2 ± 1.3	36.8 ± 6.6	27.0 ± 1.7	significant decreases	significant decrease	−6 ± 51.9	46 ± 7.3	lowered	reduction	15	869	–
CC(C)(C)OC[C@@H]1C(=O)NCCN1C(=O)C[C@H](N)Cc1cc(F)c(F)cc1F [tartrate of Compound 1, (R)-4-[(R)-3-amino-4-(2,4,5-trifluorophenyl)-butanoyl]-3-(t-butoxymethyl)piperazin-2-one]	7.4 ± 2.0	39.3 ± 3.6	15.8 ± 2.0	27.5 ± 1.5	15.1 ± 3.5	43.8 ± 4.3	significant decreases	significant decrease	78 ± 17.2	25 ± 1.9	lowered	reduction	27	757	Hepatic TG [1, 8]: 15.5 ± 2.0 mg/g wet liver; Plasma ALT [1, 8]: 20.6 ± 0.9 U/L; Hepatic TG [1, 9]: 21.5 ± 0.7 mg/g wet liver; Plasma ALT [1, 9]: 20.5 ± 1.2 U/L; Hepatic TG [1, 10]: 38.2 ± 5.8 mg/g wet liver; Plasma ALT [1, 10]: 37.5 ± 4.2 U/L; concentration dependence of protein expression decrement of TGFβ1 and α-SMA, result in words ([2]; FIG. 9): increased with a higher concentration; ALT increase inhibition (%) relative to ob/ob mouse control group [3, 11]: 43%; ALT increment (%) relative to normal mouse group [3, 11]: 610%; ALT increase inhibition (%) relative to ob/ob mouse control group [3, 12]: 39%; ALT increment (%) relative to normal mouse group [3, 12]: 653%

— patent publication US20130072459A1, “PHARMACEUTICAL COMPOSITION FOR THE PREVENTION OR THE TREATMENT OF NON-ALCOHOLIC FATTY LIVER DISEASE AND THE METHOD FOR PREVENTION OR TREATMENT OF NON-ALCOHOLIC FATTY LIVER DISEASE USING THE SAME” (priority 2010, published 2013)
